Test results reported in patent US7067665B2, “Oxybenzamide derivatives useful for inhibiting factor Xa or Vlla” (Sanofi-Aventis Deutschland GmbH, priority 2000, dated 2006).
Where two headings read alike, the source gives them in different places.

Biological target: T1, human factor Xa (Homo sapiens, UniProt P00742)
T1 construct: 25 μl human factor Xa (Enzyme Research Laboratories, Inc; South Bend, Ind.); purchased Enzyme Research Laboratories, Inc; South Bend, Ind
Experiment: Factor Xa chromogenic assay (substrate S-2765);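 note: purified enzyme, compound preincubated with the enzyme for 10 min before substrate addition starts the reaction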
Type: biochemical
Conditions: read-out: Ki(FXa)

T1 sequence (P00742 235-488 limits assumed): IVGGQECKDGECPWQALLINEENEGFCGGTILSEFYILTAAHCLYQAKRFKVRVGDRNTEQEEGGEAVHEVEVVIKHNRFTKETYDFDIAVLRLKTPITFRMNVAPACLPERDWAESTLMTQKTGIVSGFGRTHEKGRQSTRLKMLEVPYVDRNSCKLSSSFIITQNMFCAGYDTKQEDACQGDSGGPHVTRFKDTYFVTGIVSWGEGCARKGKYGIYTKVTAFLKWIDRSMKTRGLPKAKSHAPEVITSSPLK
T1 sequence (P00742 41-179 partner limits assumed): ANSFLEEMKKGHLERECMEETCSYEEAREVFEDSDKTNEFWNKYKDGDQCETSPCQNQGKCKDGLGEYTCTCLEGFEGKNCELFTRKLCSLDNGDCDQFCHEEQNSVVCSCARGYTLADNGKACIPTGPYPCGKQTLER

Compound	Ki [nM]	Ki (inhibition constant for inhibition of factor Xa, IC50 corrected for substrate competition, 25° C., enzyme 0.5 nM, substrate 140 μM) [nM]
CCOc1cc(C(=O)N2CCN(Cc3ccncc3)CC2)cc(OCCc2ccc(Cl)cc2Cl)c1OCC [Example 177, {3-[2-(2,4-Dichloro-phenyl)-ethoxy]-4,5-diethoxy-phenyl}-(4-pyridin-4-ylmethyl-piperazin-1-yl)-methanone]	226	–
CCOc1cc(C(=O)N2CCN(Cc3ccncc3)CC2)cc(OCCc2ccc(Cl)cc2Cl)c1Br [Example 180, {4-Bromo-3-[2-(2,4-dichloro-phenyl)-ethoxy]-5-ethoxy-phenyl}-(4-pyridin-4-ylmethyl-piperazin-1-yl)-methanone]	255	–
O=C(c1ccc(Cl)c(OCCc2ccc(Cl)cc2Cl)c1)N1CCN(Cc2ccncc2)CC1 [Example 182, {4-Chloro-3-[2-(2,4-dichloro-phenyl)-ethoxy]-phenyl}-(4-pyridin-4-ylmethyl-piperazin-1-yl)-methanone]	312	–
CC(C)Oc1ccc(C(=O)N2CCN(Cc3ccncc3)CC2)cc1OCCc1ccc(Cl)cc1Cl [Example 184, {3-[2-(2,4-Dichloro-phenyl)-ethoxy]-4-isopropoxy-phenyl}-(4-pyridin-4-ylmethyl-piperazin-1-yl)-methanone]	617	–
O=C(c1cc(OCCc2ccc(Cl)cc2Cl)c2c(c1)OCO2)N1CCN(Cc2ccncc2)CC1 [Example 186, {7-[2-(2,4-Dichloro-phenyl)-ethoxy]-benzo[1,3]dioxol-5-yl}-(4-pyridin-4-ylmethyl-piperazin-1-yl)-methanone]	401	–
O=C(c1ccc(Cl)c(OCCc2ccc(Cl)cc2Cl)c1)N1CCN(Cc2cc[n+](O)cc2)CC1 [Example 187, {4-Chloro-3-[2-(2,4-dichloro-phenyl)-ethoxy]-phenyl}-[4-(1-oxy-pyridin-4-ylmethyl)-piperazin-1-yl]-methanone]	964	–
COc1ccc(C(=O)N2CCN(CCCN(C)C)CC2)cc1OCCc1ccc(Cl)cc1Cl [Example 195]	6740	–
COc1ccc(C(=O)N2CCCN(CCCN3CCCC3)CC2)cc1OCCc1ccc(Cl)cc1Cl [Example 196]	4270	–
COc1ccc(C(=O)N2CCN(CCN(C)C)CC2)cc1OCCc1ccc(Cl)cc1Cl [Example 197]	6030	–
COc1ccc(C(=O)N2CCN(CCN3CCCC3)CC2)cc1OCCc1ccc(Cl)cc1Cl [Example 198]	5000	–
COc1cc(C(=O)N2CCN(Cc3ccncc3)CC2)cc(OCCc2ccc(Cl)cc2Cl)c1Cl [Example 200, {4-Chloro-3-[2-(2,4-dichloro-phenyl)-ethoxy]-5-methoxy-phenyl}-(4-pyridin-4-ylmethyl-piperazin-1-yl)-methanone]	108	–
COc1cc(C(=O)NCC2CCN(c3ccncc3)CC2)cc(OCCc2ccc(Cl)cc2)c1Cl [Example 202, 4-Chloro-3-[2-(4-chloro-phenyl)-ethoxy]-5-methoxy-N-(3,4,5,6-tetrahydro-2H-[1,4′]bipyridinyl-4-ylmethyl)-benzamide]	–	25
O=C(NCC1CCN(c2ccncc2)CC1)c1ccc(Cl)c(OCCc2ccc(F)cc2Cl)c1 [Example 207]	68	–
O=C(NCC1CCN(c2ccncc2)CC1)c1ccc(F)c(OCCc2ccc(F)cc2Cl)c1 [Example 215]	59	–
COc1cc(C(=O)NCC2CCN(c3ccnc(C)c3)CC2)cc(OCCc2ccc(Cl)cc2)c1Cl [Example 222, 4-Chloro-3-[2-(4-chloro-phenyl)-ethoxy]-5-methoxy-N-(2′-methyl-3,4,5,6-tetrahydro-2H-[1,4′]bipyridinyl-4-ylmethyl)-benzamide]	72	–
Cc1cc(N2CCC(CNC(=O)c3ccc(Cl)c(OCCc4ccc(Cl)cc4)c3)CC2)ccn1 [Example 223, 4-Chloro-3-[2-(4-chloro-phenyl)-ethoxy]-N-(2′-methyl-3,4,5,6-tetrahydro-2H-[1,4′]bipyridinyl-4-ylmethyl)-benzamide]	44	–
COc1cc(C(=O)NCC2CCN(c3ccncc3)CC2)cc(OCCc2ccc(Cl)cc2)c1Br [Example 224, 4-Bromo-3-[2-(4-chloro-phenyl)-ethoxy]-5-methoxy-N-(3,4,5,6-tetrahydro-2H-[1,4′]bipyridinyl-4-ylmethyl)-benzamide]	20	–
